Laboratory results reported in patent US8846713B2, “Fused heterocyclic compounds as phosphodiesterases (PDEs) inhibitors” (Takeda Pharmaceutical Company Limited, priority 2010, dated 2014).

Columns and labels:
Human PDE10A enzyme = target: T1, Human PDE10A enzyme (Homo sapiens, UniProt Q9Y233); experiment: PDE enzyme inhibition, SPA (Scintillation Proximity Assay) with [3H]cGMP; assay type: biochemical; details: [3H]cGMP substrate; for inhibition at 1 µM: compound 1 μM, read-out: Percent inhibition (1 μM); for inhibition at 10 µM: compound 10 μM, read-out: Percent inhibition (10 μM)
T1 construct: transfected with the full-length gene; His-tag; made in house; host or cells: Sf9 or COS-7 cells
T1 sequence (Q9Y233 267-1055): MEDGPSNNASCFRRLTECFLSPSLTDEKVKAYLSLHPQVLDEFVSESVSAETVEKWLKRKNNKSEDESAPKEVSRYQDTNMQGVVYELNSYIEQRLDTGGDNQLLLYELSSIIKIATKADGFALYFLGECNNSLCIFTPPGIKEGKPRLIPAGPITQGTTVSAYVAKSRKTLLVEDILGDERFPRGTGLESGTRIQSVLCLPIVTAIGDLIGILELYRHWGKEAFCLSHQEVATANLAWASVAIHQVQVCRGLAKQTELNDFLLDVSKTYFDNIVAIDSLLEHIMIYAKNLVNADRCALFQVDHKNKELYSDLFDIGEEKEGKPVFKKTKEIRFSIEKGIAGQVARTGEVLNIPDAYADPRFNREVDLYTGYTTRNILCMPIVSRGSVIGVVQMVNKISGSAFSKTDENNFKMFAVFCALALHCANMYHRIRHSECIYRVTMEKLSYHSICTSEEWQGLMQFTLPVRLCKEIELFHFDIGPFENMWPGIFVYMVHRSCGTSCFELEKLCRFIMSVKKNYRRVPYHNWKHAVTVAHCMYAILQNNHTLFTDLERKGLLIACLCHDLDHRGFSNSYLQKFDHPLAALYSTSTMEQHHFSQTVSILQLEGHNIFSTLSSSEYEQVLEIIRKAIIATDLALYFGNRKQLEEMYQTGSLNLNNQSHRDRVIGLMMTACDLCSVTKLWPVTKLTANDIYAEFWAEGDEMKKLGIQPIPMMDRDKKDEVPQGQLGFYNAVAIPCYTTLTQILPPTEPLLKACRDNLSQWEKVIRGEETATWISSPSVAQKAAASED
Description: Human PDE10A enzyme was generated from Sf9 or COS-7 cells transfected with the full-length gene. Cloned enzyme was extracted from homogenized cell pellets. The extracted enzyme from sf9 cells was partially purified using His-tag affinity column. The enzyme was stored at −70° C. until use. PDE activity was measured using a SPA (Scintillation Proximity Assay) (GE Healthcare). To evaluate the inhibitory activity, 10 μL of serial diluted compounds were incubated with 20 μL of PDE enzyme in assay buffer (50 mM HEPES-NaOH, 8.3 mM MgCl2, 1.7 mM EGTA, 0.1% BSA (pH 7.4)) for 30 min. at room temperature. Final concentration of DMSO in the assay was 1 percent as compounds were tested in duplicate in 96-well half-area plates (Corning). To start the reaction, 10 μL of substrate [^3H] cGMP (25 or 50 nM; enclosed in SPA kits from GE Healthcare or purchased from PerkinElmer, respectively) was added for a final assay volume of 40 μL. After 60 min incubation at room temperature, yttrium SPA beads containing Zinc sulphate were added (20 μL at 6 mg/mL) to terminate the PDE reaction. After being settled for 60 min, assay plates were counted in a scintillation counter (PerkinElmer) to allow calculation of inhibition rate. Inhibition rate was calculated on the basis of 0% control wells with DMSO and 100% control wells without enzyme.

**Q.** With CCn1c(=O)n(-c2ccc(Oc3nc4ccccc4n3C)cc2)c2ncccc21 [Example 19, 1-ethyl-3-{4-[(1-methyl-1H-benzimidazol-2-yl)oxy]phenyl}-1,3-dihydro-2H-imidazo[4,5-b]pyridin-2-one] as the compound, how does the melting point read?
**A.** 184 to 186 °C

**Q.** Which inhibition at 1 µM (Human PDE10A enzyme) does the source give for CCn1c(=O)n(-c2ccc(-n3ccn4c5ccccc5nc34)cc2)c2ncccc21 [Example 65, 1-Ethyl-3-[4-(1H-imidazo[1,2-a]benzimidazol-1-yl)phenyl]-1,3-dihydro-2H-imidazo[4,5-b]pyridin-2-one] here?
**A.** 100%

**Q.** And the inhibition at 10 µM (Human PDE10A enzyme)?
**A.** 101%

**Q.** What about the melting point of the same compound?
**A.** 220 to 221 °C

**Q.** Which results are given for Cn1c(Oc2ccc(N3C(=O)C(C)(C)c4cccnc43)cc2)nc2ccccc21 [Example 102, 3,3-dimethyl-1-{4-[(1-methyl-1H-benzimidazol-2-yl)oxy]phenyl}-1,3-dihydro-2H-pyrrolo[2,3-b]pyridin-2-one]?
**A.** inhibition at 1 µM (Human PDE10A enzyme): 99%; inhibition at 10 µM (Human PDE10A enzyme): 106%

**Q.** For Cn1c(Oc2ccc(-n3c(=O)n(C4CC4)c4cccnc43)cc2)nc2ccccc21 [Example 103, 1-cyclopropyl-3-{4-[(1-methyl-1H-benzimidazol-2-yl)oxy]phenyl}-1,3-dihydro-2H-imidazo[4,5-b]pyridin-2-one], which inhibition at 1 µM (Human PDE10A enzyme) is on record?
**A.** 101%

**Q.** And the inhibition at 10 µM (Human PDE10A enzyme)?
**A.** 103%

**Q.** What does the source list for CCn1c(=O)n(-c2ccc(Oc3nc4ccccc4n3C)cc2)c2ncc(Cl)cc21 [Example 106, 6-chloro-1-ethyl-3-{4-[(1-methyl-1H-benzimidazol-2-yl)oxy]phenyl}-1,3-dihydro-2H-imidazo[4,5-b]pyridin-2-one]?
**A.** inhibition at 1 µM (Human PDE10A enzyme): 103%; inhibition at 10 µM (Human PDE10A enzyme): 102%; melting point: 208 to 210 °C

**Q.** For CCn1c(=O)n(-c2ccc(Oc3nc4cccnc4n3C)cc2)c2ncc(Cl)cc21 [Example 107, 6-chloro-1-ethyl-3-{4-[(3-methyl-3H-imidazo[4,5-b]pyridin-2-yl)oxy]phenyl}-1,3-dihydro-2H-imidazo[4,5-b]pyridin-2-one], which inhibition at 1 µM (Human PDE10A enzyme) is on record?
**A.** 103%

**Q.** And the inhibition at 10 µM (Human PDE10A enzyme)?
**A.** 102%

**Q.** Which inhibition at 1 µM (Human PDE10A enzyme) does the source give for CCn1c(=O)n(-c2ccc(Oc3nc4cccnc4n3C)cc2)c2ncc(C#N)cc21 [Example 108, 1-ethyl-3-{4-[(3-methyl-3H-imidazo[4,5-b]pyridin-2-yl)oxy]phenyl}-2-oxo-2,3-dihydro-1H-imidazo[4,5-b]pyridine-6-carbonitrile] here?
**A.** 100%

**Q.** And the inhibition at 10 µM (Human PDE10A enzyme)?
**A.** 102%

**Q.** For CCn1c(=O)n(-c2ccc(Oc3nc4ccccc4n3C)cc2)c2ncc(C#N)cc21 [Example 109, 1-ethyl-3-{4-[(1-methyl-1H-benzimidazol-2-yl)oxy]phenyl}-2-oxo-2,3-dihydro-1H-imidazo[4,5-b]pyridine-6-carbonitrile], which inhibition at 1 µM (Human PDE10A enzyme) is on record?
**A.** 99%

**Q.** And the inhibition at 10 µM (Human PDE10A enzyme)?
**A.** 102%

**Q.** With CCn1c(=O)n(-c2ccc(Oc3nc4c(n3C)CCCC4)cc2)c2ncccc21 [Example 112, 1-ethyl-3-{4-[(1-methyl-4,5,6,7-tetrahydro-1H-benzimidazol-2-yl)oxy]phenyl}-1,3-dihydro-2H-imidazo[4,5-b]pyridin-2-one] as the compound, how does the inhibition at 1 µM (Human PDE10A enzyme) read?
**A.** 99%

**Q.** What about the inhibition at 10 µM (Human PDE10A enzyme) of the same compound?
**A.** 98%

**Q.** For CCn1c(=O)n(-c2ccc(Oc3nc4ccncc4[nH]3)cc2)c2ncccc21 [Example 115, 1-ethyl-3-[4-(3H-imidazo[4,5-c]pyridin-2-yloxy)phenyl]-1,3-dihydro-2H-imidazo[4,5-b]pyridin-2-one], which inhibition at 1 µM (Human PDE10A enzyme) is on record?
**A.** 100%

**Q.** What about the inhibition at 10 µM (Human PDE10A enzyme) of the same compound?
**A.** 97%

**Q.** Which inhibition at 1 µM (Human PDE10A enzyme) does the source give for CCn1c(=O)n(-c2ccc(Oc3nc4cccnc4n3C)cc2)c2ncc(C)cc21 [Example 118, 1-ethyl-6-methyl-3-{4-[(3-methyl-3H-imidazo[4,5-b]pyridin-2-yl)oxy]phenyl}-1,3-dihydro-2H-imidazo[4,5-b]pyridin-2-one] here?
**A.** 102%

**Q.** What about the inhibition at 10 µM (Human PDE10A enzyme) of the same compound?
**A.** 104%

**Q.** And the melting point?
**A.** 217 to 219 °C

**Q.** For CCn1c(=O)n(-c2ccc(Oc3nc4cccnc4n3C)cc2)c2ncc(OC)cc21 [Example 119, 1-ethyl-6-methoxy-3-{4-[(3-methyl-3H-imidazo[4,5-b]pyridin-2-yl)oxy]phenyl}-1,3-dihydro-2H-imidazo[4,5-b]pyridin-2-one], which inhibition at 1 µM (Human PDE10A enzyme) is on record?
**A.** 99%

**Q.** And the inhibition at 10 µM (Human PDE10A enzyme)?
**A.** 103%

**Q.** What about the melting point of the same compound?
**A.** 197 to 198 °C

**Q.** What does the source list for CCn1c(=O)n(-c2ccc(Oc3nc4cccnc4n3C)cc2)c2nccc(C)c21 [Example 120, 1-ethyl-7-methyl-3-{4-[(3-methyl-3H-imidazo[4,5-b]pyridin-2-yl)oxy]phenyl}-1,3-dihydro-2H-imidazo[4,5-b]pyridin-2-one]?
**A.** inhibition at 1 µM (Human PDE10A enzyme): 109%; inhibition at 10 µM (Human PDE10A enzyme): 106%

**Q.** For CC1(C)C(=O)N(c2ccc(Oc3cn4ccccc4n3)cc2)c2ncccc21 [Example 123, 1-[4-(imidazo[1,2-a]pyridin-2-yloxy)phenyl]-3,3-dimethyl-1,3-dihydro-2H-pyrrolo[2,3-b]pyridin-2-one], which inhibition at 1 µM (Human PDE10A enzyme) is on record?
**A.** 96%

**Q.** And the inhibition at 10 µM (Human PDE10A enzyme)?
**A.** 101%

**Q.** Which inhibition at 1 µM (Human PDE10A enzyme) does the source give for CCn1c(=O)n(-c2ccc(Oc3cn4ccccc4n3)cc2)c2ncc(C)cc21 [Example 124, 1-ethyl-3-[4-(imidazo[1,2-a]pyridin-2-yloxy)phenyl]-6-methyl-1,3-dihydro-2H-imidazo[4,5-b]pyridin-2-one] here?
**A.** 99%

**Q.** And the inhibition at 10 µM (Human PDE10A enzyme)?
**A.** 99%

**Q.** What does the source list for CC(C)n1c(=O)n(-c2ccc(Oc3nc4cccnc4n3C)cc2)c2ncc(Cl)cc21 [Example 126, 6-chloro-1-(1-methylethyl)-3-{4-[(3-methyl-3H-imidazo[4,5-b]pyridin-2-yl)oxy]phenyl}-1,3-dihydro-2H-imidazo[4,5-b]pyridin-2-one]?
**A.** inhibition at 1 µM (Human PDE10A enzyme): 98%; inhibition at 10 µM (Human PDE10A enzyme): 100%

**Q.** With CCn1c(=O)n(-c2ccc(Oc3nc4ccccc4n3C)cc2)c2ncc(F)cc21 [Example 132, 1-ethyl-6-fluoro-3-{4-[(1-methyl-1H-benzimidazol-2-yl)oxy]phenyl}-1,3-dihydro-2H-imidazo[4,5-b]pyridin-2-one] as the compound, how does the inhibition at 1 µM (Human PDE10A enzyme) read?
**A.** 104%

**Q.** What about the inhibition at 10 µM (Human PDE10A enzyme) of the same compound?
**A.** 107%

**Q.** Which results are given for CCn1c(=O)n(-c2ccc(Oc3nc4cccnc4n3C)cc2)c2ncc(F)cc21 [Example 133, 1-ethyl-6-fluoro-3-{4-[(3-methyl-3H-imidazo[4,5-b]pyridin-2-yl)oxy]phenyl}-1,3-dihydro-2H-imidazo[4,5-b]pyridin-2-one]?
**A.** inhibition at 1 µM (Human PDE10A enzyme): 104%; inhibition at 10 µM (Human PDE10A enzyme): 101%

**Q.** What does the source list for Cc1ccnc2c1n(C)c(=O)n2-c1ccc(Oc2nc3cccnc3n2C)cc1 [Example 135, 1,7-dimethyl-3-{4-[(3-methyl-3H-imidazo[4,5-b]pyridin-2-yl)oxy]phenyl}-1,3-dihydro-2H-imidazo[4,5-b]pyridin-2-one]?
**A.** inhibition at 1 µM (Human PDE10A enzyme): 94%; inhibition at 10 µM (Human PDE10A enzyme): 99%

**Q.** Which inhibition at 1 µM (Human PDE10A enzyme) does the source give for CCn1c(=O)n(-c2ccc(Oc3nc4cccnc4n3C)cc2)c2c1c(C)cc[n+]2[O-] [Example 136, 1-ethyl-7-methyl-3-{4-[(3-methyl-3H-imidazo[4,5-b]pyridin-2-yl)oxy]phenyl}-1,3-dihydro-2H-imidazo[4,5-b]pyridin-2-one 4-oxide] here?
**A.** 81%

**Q.** And the inhibition at 10 µM (Human PDE10A enzyme)?
**A.** 98%

**Q.** Which results are given for CCn1c(=O)n(-c2ccc(Oc3nc4cccnc4n3C)cc2)c2nccc(COC(C)=O)c21 [Example 137, (1-ethyl-3-{4-[(3-methyl-3H-imidazo[4,5-b]pyridin-2-yl)oxy]phenyl}-2-oxo-2,3-dihydro-1H-imidazo[4,5-b]pyridin-7-yl)methyl acetate]?
**A.** inhibition at 1 µM (Human PDE10A enzyme): 88%; inhibition at 10 µM (Human PDE10A enzyme): 98%

**Q.** For CCn1c(=O)n(-c2ccc(Oc3nc4cccnc4n3C)cc2)c2nccc(CO)c21 [Example 138, 1-ethyl-7-(hydroxymethyl)-3-{4-[(3-methyl-3H-imidazo[4,5-b]pyridin-2-yl)oxy]phenyl}-1,3-dihydro-2H-imidazo[4,5-b]pyridin-2-one], which inhibition at 1 µM (Human PDE10A enzyme) is on record?
**A.** 93%

**Q.** And the inhibition at 10 µM (Human PDE10A enzyme)?
**A.** 105%
